Experiments:
[1] = biological target: Phosphatidylinositol 4,5-bisphosphate 3-kinase catalytic subunit gamma isoform (Homo sapiens, UniProt P48736); test: Inhibition of recombinant human N-terminal His6-tagged full length P120gamma expressed in baculovirus infected Sf21 insect cells using PIP2 as substrate preincubated for 15 mins followed by substrate addition and measured after 60 mins by HTRF assay
PI3K p110 beta/p85 alpha = PI3K p110 beta/p85 alpha (Homo sapiens, UniProt P42338); test: Inhibition of recombinant human N-terminal His6-tagged full length P110beta/full length untagged human p85alpha expressed in baculovirus infected Sf21 insect cells using PIP2 as substrate preincubated for 15 mins followed by substrate addition and measured after 60 mins by HTRF assay
PI3K p110 beta/p85 alpha, sequence (P27986 whole entry): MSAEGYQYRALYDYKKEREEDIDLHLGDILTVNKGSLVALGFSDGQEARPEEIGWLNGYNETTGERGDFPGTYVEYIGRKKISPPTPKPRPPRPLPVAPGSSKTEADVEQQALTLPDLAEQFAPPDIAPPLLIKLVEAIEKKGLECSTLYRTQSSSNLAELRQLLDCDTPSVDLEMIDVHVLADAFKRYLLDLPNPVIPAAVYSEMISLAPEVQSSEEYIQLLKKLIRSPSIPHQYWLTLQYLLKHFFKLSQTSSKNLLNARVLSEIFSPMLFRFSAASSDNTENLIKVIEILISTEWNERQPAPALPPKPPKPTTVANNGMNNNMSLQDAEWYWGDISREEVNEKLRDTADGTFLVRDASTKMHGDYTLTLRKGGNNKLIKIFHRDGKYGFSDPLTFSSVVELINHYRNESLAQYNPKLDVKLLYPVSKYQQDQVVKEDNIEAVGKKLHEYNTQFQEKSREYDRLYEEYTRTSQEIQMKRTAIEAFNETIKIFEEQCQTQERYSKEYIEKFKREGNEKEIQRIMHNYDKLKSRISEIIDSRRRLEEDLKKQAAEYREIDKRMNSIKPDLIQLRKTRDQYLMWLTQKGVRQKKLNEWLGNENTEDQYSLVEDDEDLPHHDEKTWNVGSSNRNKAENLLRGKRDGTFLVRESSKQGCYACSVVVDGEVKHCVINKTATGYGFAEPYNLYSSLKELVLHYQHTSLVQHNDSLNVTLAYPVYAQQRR
PI3K p110 beta/p85 alpha, sequence (P42338 whole entry): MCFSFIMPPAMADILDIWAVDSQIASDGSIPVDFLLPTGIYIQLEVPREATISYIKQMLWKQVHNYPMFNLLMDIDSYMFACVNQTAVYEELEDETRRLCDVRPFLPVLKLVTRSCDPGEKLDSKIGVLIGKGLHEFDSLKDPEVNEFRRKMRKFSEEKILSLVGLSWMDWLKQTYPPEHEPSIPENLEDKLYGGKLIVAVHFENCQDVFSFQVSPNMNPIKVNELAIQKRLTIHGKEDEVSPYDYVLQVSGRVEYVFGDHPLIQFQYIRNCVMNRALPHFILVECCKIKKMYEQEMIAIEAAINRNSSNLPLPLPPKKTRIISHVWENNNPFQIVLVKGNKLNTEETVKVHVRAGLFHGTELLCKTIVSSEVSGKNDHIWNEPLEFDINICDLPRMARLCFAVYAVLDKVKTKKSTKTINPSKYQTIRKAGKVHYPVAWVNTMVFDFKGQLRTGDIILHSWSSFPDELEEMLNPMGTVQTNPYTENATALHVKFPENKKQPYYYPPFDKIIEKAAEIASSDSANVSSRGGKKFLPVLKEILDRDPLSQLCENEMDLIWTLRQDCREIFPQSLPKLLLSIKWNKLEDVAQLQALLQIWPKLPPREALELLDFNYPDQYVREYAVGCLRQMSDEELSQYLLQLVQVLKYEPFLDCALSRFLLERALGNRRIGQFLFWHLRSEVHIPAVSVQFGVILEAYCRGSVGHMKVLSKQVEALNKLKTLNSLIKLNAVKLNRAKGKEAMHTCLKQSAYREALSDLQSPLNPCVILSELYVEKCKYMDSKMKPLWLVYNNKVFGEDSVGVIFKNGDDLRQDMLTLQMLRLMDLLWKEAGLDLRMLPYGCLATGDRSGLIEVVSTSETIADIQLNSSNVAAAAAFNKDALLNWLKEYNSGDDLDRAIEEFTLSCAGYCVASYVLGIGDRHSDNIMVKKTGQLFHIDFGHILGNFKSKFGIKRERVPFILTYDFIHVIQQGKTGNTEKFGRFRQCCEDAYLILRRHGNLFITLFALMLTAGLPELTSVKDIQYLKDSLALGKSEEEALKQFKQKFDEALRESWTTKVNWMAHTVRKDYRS

[2] = biological target: PI3-kinase p110-alpha/p85-alpha (Homo sapiens, UniProt P42336); test: Inhibition of recombinant human N-terminal His6-tagged full length P110alpha/full length untagged human p85alpha expressed in baculovirus infected Sf21 insect cells using PIP2 as substrate preincubated for 15 mins followed by substrate addition and measured after 60 mins by HTRF assay
PI3-kinase p110-alpha/p85-alpha, sequence (P27986 whole entry): as the sequence (P27986 whole entry) above
PI3-kinase p110-alpha/p85-alpha, sequence (P42336 whole entry): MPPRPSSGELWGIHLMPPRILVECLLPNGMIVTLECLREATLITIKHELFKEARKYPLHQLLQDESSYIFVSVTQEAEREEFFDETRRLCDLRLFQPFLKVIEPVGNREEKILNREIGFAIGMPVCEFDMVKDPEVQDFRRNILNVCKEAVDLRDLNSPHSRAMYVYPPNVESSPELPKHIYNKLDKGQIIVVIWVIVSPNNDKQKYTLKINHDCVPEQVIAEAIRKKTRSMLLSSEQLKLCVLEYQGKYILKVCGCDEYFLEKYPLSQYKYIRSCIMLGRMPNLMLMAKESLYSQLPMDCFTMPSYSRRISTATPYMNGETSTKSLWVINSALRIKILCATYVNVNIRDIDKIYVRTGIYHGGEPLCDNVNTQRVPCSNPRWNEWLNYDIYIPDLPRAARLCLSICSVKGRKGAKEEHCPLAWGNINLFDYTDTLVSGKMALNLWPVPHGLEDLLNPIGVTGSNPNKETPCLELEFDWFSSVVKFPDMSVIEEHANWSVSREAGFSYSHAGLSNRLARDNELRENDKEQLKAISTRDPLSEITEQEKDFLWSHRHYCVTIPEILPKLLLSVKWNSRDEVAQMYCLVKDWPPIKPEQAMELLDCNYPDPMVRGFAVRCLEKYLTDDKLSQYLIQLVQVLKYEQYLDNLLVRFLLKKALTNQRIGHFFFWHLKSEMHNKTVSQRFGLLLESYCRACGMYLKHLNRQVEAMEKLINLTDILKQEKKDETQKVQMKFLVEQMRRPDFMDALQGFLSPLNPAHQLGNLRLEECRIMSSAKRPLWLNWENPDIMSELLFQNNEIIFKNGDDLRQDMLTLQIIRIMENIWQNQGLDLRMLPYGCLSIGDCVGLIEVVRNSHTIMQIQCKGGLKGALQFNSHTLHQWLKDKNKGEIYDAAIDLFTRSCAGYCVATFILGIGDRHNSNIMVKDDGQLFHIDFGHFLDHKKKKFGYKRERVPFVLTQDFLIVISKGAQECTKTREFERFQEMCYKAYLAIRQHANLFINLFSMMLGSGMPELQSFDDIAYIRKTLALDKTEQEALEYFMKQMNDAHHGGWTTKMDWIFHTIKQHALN

[3] = biological target: PI3-kinase p110-delta/p85-alpha (Homo sapiens, UniProt O00329); test: Inhibition of recombinant human N-terminal His6-tagged full length P110delta/full length untagged human p85alpha expressed in baculovirus infected Sf21 insect cells using PIP2 as substrate preincubated for 15 mins followed by substrate addition and measured after 60 mins by HTRF assay
PI3-kinase p110-delta/p85-alpha, sequence (P27986 whole entry, one chain of several): as the sequence (P27986 whole entry) above

[4] = Intrinsic clearance in Wistar Han rat liver microsomes at 0.5 uM measured up to 45 mins in presence of NADPH by LC-MS/MS analysis; format: ADME, Microsome; conditions: read-out: CLH
in vitro = conditions: human, pooled liver microsomes
Description: Intrinsic clearance in pooled human liver microsomes at 0.5 uM measured up to 45 mins in presence of NADPH by LC-MS/MS analysis

[5] = biological target: T1, Phosphatidylinositol 4,5-bisphosphate 3-kinase catalytic subunit delta isoform (Homo sapiens, UniProt O00329); test: Inhibition of PI3Kdelta in human whole blood assessed as reduction in cytostim-stimulated IFNgamma production preincubated for 1 hr followed by cytostim stimulation and measured after 20 hrs by electrochemiluminescence assay
T1 sequence (O00329 whole entry): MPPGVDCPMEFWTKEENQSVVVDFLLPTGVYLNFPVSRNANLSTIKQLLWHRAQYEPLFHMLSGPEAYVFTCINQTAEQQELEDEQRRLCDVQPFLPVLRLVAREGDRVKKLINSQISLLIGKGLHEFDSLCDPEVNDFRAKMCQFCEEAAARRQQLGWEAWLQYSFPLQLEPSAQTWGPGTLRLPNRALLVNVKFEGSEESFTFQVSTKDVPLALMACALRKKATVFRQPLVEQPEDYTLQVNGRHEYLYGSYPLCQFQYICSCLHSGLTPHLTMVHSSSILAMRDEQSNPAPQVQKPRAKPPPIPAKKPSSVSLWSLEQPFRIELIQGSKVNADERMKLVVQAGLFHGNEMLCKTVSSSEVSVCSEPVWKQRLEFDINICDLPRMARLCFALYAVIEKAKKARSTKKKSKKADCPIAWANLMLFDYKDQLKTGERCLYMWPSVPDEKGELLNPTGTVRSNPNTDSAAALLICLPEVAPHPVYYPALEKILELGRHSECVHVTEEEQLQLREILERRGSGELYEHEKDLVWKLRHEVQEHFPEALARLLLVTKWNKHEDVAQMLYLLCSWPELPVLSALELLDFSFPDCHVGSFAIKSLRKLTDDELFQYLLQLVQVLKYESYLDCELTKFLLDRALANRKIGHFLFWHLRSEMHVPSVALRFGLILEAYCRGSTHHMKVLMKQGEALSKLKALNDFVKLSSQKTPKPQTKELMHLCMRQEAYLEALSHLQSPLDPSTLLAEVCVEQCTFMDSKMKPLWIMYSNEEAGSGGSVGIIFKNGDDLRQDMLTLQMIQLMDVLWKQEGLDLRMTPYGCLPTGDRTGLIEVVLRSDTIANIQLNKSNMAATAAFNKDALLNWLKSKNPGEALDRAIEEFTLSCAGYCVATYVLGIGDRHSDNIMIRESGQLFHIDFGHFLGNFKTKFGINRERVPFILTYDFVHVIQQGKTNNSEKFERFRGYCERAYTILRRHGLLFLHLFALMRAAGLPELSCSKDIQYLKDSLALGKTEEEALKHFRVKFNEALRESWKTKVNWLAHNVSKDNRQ

[6] = Lipophilicity, log D of compound by chromatographic method; format: physicochemical

Phosphatidylinositol 4,5-bisphosphate 3-kinase catalytic subunit gamma isoform, sequence (P48736 whole entry, canonical isoform): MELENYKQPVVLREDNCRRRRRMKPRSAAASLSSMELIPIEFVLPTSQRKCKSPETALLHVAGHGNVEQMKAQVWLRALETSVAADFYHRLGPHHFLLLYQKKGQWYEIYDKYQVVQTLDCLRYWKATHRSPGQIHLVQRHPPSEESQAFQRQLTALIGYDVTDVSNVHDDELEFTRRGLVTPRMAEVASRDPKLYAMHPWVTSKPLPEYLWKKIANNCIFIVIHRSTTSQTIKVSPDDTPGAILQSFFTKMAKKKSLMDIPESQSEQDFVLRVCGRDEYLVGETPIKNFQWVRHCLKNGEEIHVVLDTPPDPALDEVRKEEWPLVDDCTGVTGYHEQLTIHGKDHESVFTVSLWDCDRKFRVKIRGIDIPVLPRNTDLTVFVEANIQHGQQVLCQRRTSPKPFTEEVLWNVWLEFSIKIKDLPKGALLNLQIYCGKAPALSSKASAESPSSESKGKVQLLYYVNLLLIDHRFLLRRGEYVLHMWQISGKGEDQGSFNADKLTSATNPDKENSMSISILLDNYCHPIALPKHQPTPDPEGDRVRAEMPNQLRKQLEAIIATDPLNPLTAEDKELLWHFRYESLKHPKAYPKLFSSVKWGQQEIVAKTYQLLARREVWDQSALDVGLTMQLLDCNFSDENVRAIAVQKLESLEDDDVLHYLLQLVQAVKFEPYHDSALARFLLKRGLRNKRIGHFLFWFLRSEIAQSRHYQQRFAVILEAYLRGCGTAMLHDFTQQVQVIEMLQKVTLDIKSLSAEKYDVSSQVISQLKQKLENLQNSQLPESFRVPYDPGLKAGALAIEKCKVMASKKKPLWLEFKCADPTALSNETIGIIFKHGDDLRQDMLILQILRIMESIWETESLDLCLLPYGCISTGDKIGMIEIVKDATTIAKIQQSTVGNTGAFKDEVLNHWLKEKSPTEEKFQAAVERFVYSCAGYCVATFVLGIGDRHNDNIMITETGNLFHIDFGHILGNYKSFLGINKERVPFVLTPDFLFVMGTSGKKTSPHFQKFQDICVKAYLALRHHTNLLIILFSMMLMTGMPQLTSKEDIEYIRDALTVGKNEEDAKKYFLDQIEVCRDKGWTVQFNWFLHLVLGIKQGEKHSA

Structure (SMILES): COc1ncc(N2CCOCC2)cc1S(=O)(=O)Nc1ccnc(-c2ccc(CN3CCN(C(C)(C)C)CC3)cc2)c1 [listing 1 of 2 here]
- IC50 [1]: 3980 nM
- IC50 (PI3K p110 beta/p85 alpha): 6310 nM
- IC50 [2]: 1580 nM

Structure (SMILES): COc1ncc(N2CCOCC2)cc1S(=O)(=O)Nc1cncc(-c2ccc(CN3CCCC3)cc2)c1 [listing 1 of 2 here]
- IC50 [1]: 10000 nM

Structure (SMILES): COc1ncc(N2CCOCC2)cc1S(=O)(=O)Nc1ccnc(-c2ccc(CN3CCN(C(C)(C)C)CC3)cc2)c1 [listing 2 of 2 here]
- IC50 [3]: 0.794 nM
- Ki [3]: 0.0251 nM
- CLint scaled at 0.5 µM [4]: < 0.46 mL/min/kg
- CLint scaled at 0.75 h, 0.5 µM (in vitro): < 0.4 mL/min/kg
- IC50 [5]: 7.94 nM
- chromatographic logD [6]: 1.3

Structure (SMILES): COc1ncc(N2CCOCC2)cc1S(=O)(=O)Nc1cncc(-c2ccc(CN3CCN(C(C)C)CC3)cc2)c1
- IC50 [3]: 2.51 nM
- Ki [3]: 0.0794 nM
- CLint scaled at 0.5 µM [4]: < 0.46 mL/min/kg
- CLint scaled at 0.75 h, 0.5 µM (in vitro): 0.71 mL/min/kg
- IC50 [5]: 20 nM
- IC50 [1]: 7940 nM
- IC50 (PI3K p110 beta/p85 alpha): 2510 nM
- IC50 [2]: 1260 nM
- chromatographic logD [6]: 2.3

Structure (SMILES): COc1ncc(N2CCOCC2)cc1S(=O)(=O)Nc1ccnc(-c2ccc(CN3CCN(C(C)(C)C)CC3)cc2F)c1
- IC50 [3]: 0.794 nM
- Ki [3]: 0.0251 nM
- CLint scaled at 0.5 µM [4]: < 0.37 mL/min/kg
- CLint scaled at 0.75 h, 0.5 µM (in vitro): < 0.31 mL/min/kg
- IC50 [5]: 2.51 nM
- IC50 [1]: 2000 nM
- IC50 (PI3K p110 beta/p85 alpha): 3980 nM
- IC50 [2]: 794 nM
- chromatographic logD [6]: 1.9

Structure (SMILES): COc1ncc(N2CCOCC2)cc1S(=O)(=O)Nc1cncc(C#CCN2CCN(C(C)C)CC2)c1
- IC50 [3]: 31.6 nM
- CLint scaled at 0.5 µM [4]: < 0.46 mL/min/kg
- CLint scaled at 0.75 h, 0.5 µM (in vitro): < 0.4 mL/min/kg
- IC50 [5]: 158 nM
- pIC50 ([1]; sf21): > 4.5
- IC50 (PI3K p110 beta/p85 alpha): 15800 nM
- IC50 [2]: 20000 nM
- chromatographic logD [6]: 1.6

Structure (SMILES): COc1ncc(C2=CCOCC2)cc1S(=O)(=O)Nc1cncc(C#CCN2C[C@@H](C)O[C@@H](C)C2)c1
- IC50 [3]: 3.98 nM
- CLint scaled at 0.5 µM [4]: 5.59 mL/min/kg
- CLint scaled at 0.75 h, 0.5 µM (in vitro): 3.64 mL/min/kg
- IC50 [1]: 5010 nM
- IC50 (PI3K p110 beta/p85 alpha): 5010 nM
- IC50 [2]: 6310 nM
- chromatographic logD [6]: 3.6

Structure (SMILES): COc1ncc(N2CCOCC2)cc1S(=O)(=O)Nc1ccnc(-c2ccc(CN3CCN(C(C)C)CC3)cc2)c1
- IC50 [3]: 1.26 nM
- Ki [3]: 0.0398 nM
- CLint scaled at 0.5 µM [4]: < 0.46 mL/min/kg
- CLint scaled at 0.75 h, 0.5 µM (in vitro): < 0.4 mL/min/kg
- IC50 [5]: 12.6 nM
- IC50 [1]: 5010 nM
- IC50 (PI3K p110 beta/p85 alpha): 10000 nM
- IC50 [2]: 2510 nM
- chromatographic logD [6]: 1.4

Structure (SMILES): COc1ncc(C2=CCOCC2)cc1S(=O)(=O)Nc1cncc(-c2ccc(CN3CCCCC3)s2)c1
- IC50 [3]: 2.51 nM
- IC50 [5]: 31.6 nM
- IC50 [1]: 1580 nM
- IC50 (PI3K p110 beta/p85 alpha): 100 nM
- IC50 [2]: 1580 nM
- chromatographic logD [6]: 4.7

Structure (SMILES): COc1ncc(C2=CCOCC2)cc1S(=O)(=O)Nc1cncc(-c2ccc(CN3CCN(C(C)C)CC3)cc2)c1
- IC50 [3]: 0.316 nM
- Ki [3]: 0.01 nM
- CLint scaled at 0.5 µM [4]: 0.61 mL/min/kg
- CLint scaled at 0.75 h, 0.5 µM (in vitro): 2.28 mL/min/kg
- IC50 [5]: 12.6 nM
- IC50 [1]: 2510 nM
- IC50 (PI3K p110 beta/p85 alpha): 794 nM
- IC50 [2]: 398 nM
- chromatographic logD [6]: 2.9

Structure (SMILES): COc1ncc(C2=CCOCC2)cc1S(=O)(=O)Nc1ccccc1
- IC50 [3]: 200 nM
- IC50 [5]: 3980 nM
- IC50 [1]: 7940 nM
- IC50 (PI3K p110 beta/p85 alpha): 2510 nM
- IC50 [2]: 3980 nM

Structure (SMILES): COc1ncc(C2=CCOCC2)cc1S(=O)(=O)Nc1cncc(-c2ccc(CN3CCCC3)cc2)c1
- IC50 [3]: 5.01 nM
- CLint scaled at 0.5 µM [4]: 0.88 mL/min/kg
- CLint scaled at 0.75 h, 0.5 µM (in vitro): 0.72 mL/min/kg
- IC50 [5]: 31.6 nM
- IC50 [1]: 10000 nM
- IC50 (PI3K p110 beta/p85 alpha): 631 nM
- IC50 [2]: 5010 nM
- chromatographic logD [6]: 2.2

Structure (SMILES): COc1ncc(C2=CCOCC2)cc1S(=O)(=O)Nc1cncc(-c2ccc(CN3CCN(C)CC3)cc2)c1
- IC50 [3]: 3.16 nM
- CLint scaled at 0.5 µM [4]: 0.96 mL/min/kg
- CLint scaled at 0.75 h, 0.5 µM (in vitro): 1.64 mL/min/kg
- IC50 [5]: 39.8 nM
- IC50 [1]: 3160 nM
- IC50 (PI3K p110 beta/p85 alpha): 501 nM
- IC50 [2]: 251 nM
- chromatographic logD [6]: 2.3

Structure (SMILES): COc1ncc(C2=CCOCC2)cc1S(=O)(=O)Nc1cncc(-c2ccc(N3CCN(C(C)C)CC3)cc2)c1
- IC50 [3]: 3.16 nM
- IC50 [5]: 50.1 nM
- IC50 [1]: 7940 nM
- IC50 (PI3K p110 beta/p85 alpha): 316 nM
- IC50 [2]: 316 nM
- chromatographic logD [6]: 3.8

Structure (SMILES): COc1ncc(N2CCOCC2)cc1S(=O)(=O)Nc1ccnc(-c2ccc(CN3CCN(C(C)C)CC3)c(F)c2F)c1 [listing 1 of 2 here]
- IC50 [1]: 2000 nM

Structure (SMILES): COc1ncc(C2=CCOCC2)cc1S(=O)(=O)Nc1cncc(C2=CCN(C)CC2)c1
- IC50 [3]: 316 nM
- IC50 [1]: 5010 nM
- IC50 (PI3K p110 beta/p85 alpha): 5010 nM
- IC50 [2]: 20000 nM
- chromatographic logD [6]: 1.5

Structure (SMILES): COc1ncc(C2=CCOCC2)cc1S(=O)(=O)Nc1cncc(C2CC2CN(C)C)c1 (stereo not drawn)
- IC50 [3]: 126 nM
- IC50 [1]: 7940 nM
- IC50 (PI3K p110 beta/p85 alpha): 1260 nM
- IC50 [2]: 6310 nM
- chromatographic logD [6]: 1.2

Structure (SMILES): COc1ncc(N2CCOCC2)cc1S(=O)(=O)Nc1ccnc(-c2ccc(CN3CCN(C(C)C)CC3)c(F)c2F)c1 [listing 2 of 2 here]
- IC50 [3]: 1.58 nM
- Ki [3]: 0.0631 nM
- CLint scaled at 0.5 µM [4]: < 0.46 mL/min/kg
- CLint scaled at 0.75 h, 0.5 µM (in vitro): 0.47 mL/min/kg
- IC50 [5]: 3.16 nM
- IC50 (PI3K p110 beta/p85 alpha): 5010 nM
- IC50 [2]: 1260 nM
- chromatographic logD [6]: 2.2

Structure (SMILES): COc1ncc(N2CCOCC2)cc1S(=O)(=O)Nc1cncc(-c2ccc(CN3CCN(C(C)C)CC3)cc2F)c1 [listing 1 of 2 here]
- IC50 [5]: 3.16 nM

Structure (SMILES): COc1ncc(N2CCOCC2)cc1S(=O)(=O)Nc1cncc(-c2ccc(CN3CCN(C(C)C)CC3)cc2F)c1 [listing 2 of 2 here]
- IC50 [3]: 1.26 nM
- CLint scaled at 0.5 µM [4]: < 0.46 mL/min/kg
- CLint scaled at 0.75 h, 0.5 µM (in vitro): 0.65 mL/min/kg
- IC50 [1]: 2510 nM
- IC50 (PI3K p110 beta/p85 alpha): 3980 nM
- IC50 [2]: 501 nM
- chromatographic logD [6]: 2.6

Structure (SMILES): COc1ncc(N2CCOCC2)cc1S(=O)(=O)Nc1cncc(-c2ccc(CN3CCCC3)cc2)c1 [listing 2 of 2 here]
- IC50 [3]: 20 nM
- CLint scaled at 0.5 µM [4]: < 0.46 mL/min/kg
- CLint scaled at 0.75 h, 0.5 µM (in vitro): < 0.4 mL/min/kg
- IC50 [5]: 79.4 nM
- IC50 (PI3K p110 beta/p85 alpha): 2000 nM
- IC50 [2]: 5010 nM
- chromatographic logD [6]: 1.9

— ChEMBL document CHEMBL4825755 (J Med Chem, 2021)
